Assay results as given in ChEMBL document CHEMBL5380860, “Design, Synthesis, and Antitumor Activity of Potent and Selective EGFR L858R/T790M Inhibitors and Identification of a Combination Therapy to Overcome Acquired Resistance in Models of Non-small-cell Lung Cancer” (J Med Chem, 2023).
Calls of active or inactive are those of the source. No cut-off for these calls is given here.

What was measured:
[1] = test system: Epidermal growth factor receptor (Homo sapiens), P00533 [L858R,T790M]; test: Inhibition of human partial length EGFR (R669 to V1011 residues) L858R/T790M mutant expressed in mammalian expression system assessed as residual activity at 1 uM by KINOMEscan analysis
[2] = target: T1, Tyrosine-protein kinase Tec (Homo sapiens) (UniProt P42680); test: Inhibition of human wild type partial length TEC kinase (L341 to D620 residues) expressed in bacterial expression system assessed as residual activity at 1 uM by KINOMEscan analysis
T1 sequence (whole entry): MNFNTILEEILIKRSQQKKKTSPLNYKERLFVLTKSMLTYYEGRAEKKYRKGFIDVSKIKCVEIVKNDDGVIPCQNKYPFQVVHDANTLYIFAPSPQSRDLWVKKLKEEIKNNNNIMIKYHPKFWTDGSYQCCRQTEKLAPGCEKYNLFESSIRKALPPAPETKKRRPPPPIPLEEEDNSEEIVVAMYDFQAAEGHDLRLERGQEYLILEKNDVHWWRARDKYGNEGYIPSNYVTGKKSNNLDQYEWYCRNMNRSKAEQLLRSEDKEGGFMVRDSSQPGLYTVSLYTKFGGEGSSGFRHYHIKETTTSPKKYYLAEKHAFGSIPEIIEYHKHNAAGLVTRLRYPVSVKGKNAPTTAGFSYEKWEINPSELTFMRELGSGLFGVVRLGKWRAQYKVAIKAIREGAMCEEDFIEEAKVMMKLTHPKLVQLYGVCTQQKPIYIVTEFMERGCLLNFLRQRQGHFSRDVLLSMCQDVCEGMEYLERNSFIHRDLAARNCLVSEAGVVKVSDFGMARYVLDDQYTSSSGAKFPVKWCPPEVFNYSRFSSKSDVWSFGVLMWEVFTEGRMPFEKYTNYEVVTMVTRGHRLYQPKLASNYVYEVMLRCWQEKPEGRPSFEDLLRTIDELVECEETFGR

[3] = target: Epidermal growth factor receptor (Homo sapiens, UniProt P00533, L858R/T790M); test: Inhibition of human partial length EGFR (R669 to V1011 residues) L858R/T790M mutant expressed in mammalian expression system by KINOMEscan analysis
[4] = target: STE20-like serine/threonine-protein kinase (Homo sapiens, UniProt Q9H2G2); test: Inhibition of human wild type partial length SLK (S14 to A307 residues) expressed in bacterial expression system by KINOMEscan analysis
STE20-like serine/threonine-protein kinase, sequence (Q9H2G2 whole entry, the tested form may be a part): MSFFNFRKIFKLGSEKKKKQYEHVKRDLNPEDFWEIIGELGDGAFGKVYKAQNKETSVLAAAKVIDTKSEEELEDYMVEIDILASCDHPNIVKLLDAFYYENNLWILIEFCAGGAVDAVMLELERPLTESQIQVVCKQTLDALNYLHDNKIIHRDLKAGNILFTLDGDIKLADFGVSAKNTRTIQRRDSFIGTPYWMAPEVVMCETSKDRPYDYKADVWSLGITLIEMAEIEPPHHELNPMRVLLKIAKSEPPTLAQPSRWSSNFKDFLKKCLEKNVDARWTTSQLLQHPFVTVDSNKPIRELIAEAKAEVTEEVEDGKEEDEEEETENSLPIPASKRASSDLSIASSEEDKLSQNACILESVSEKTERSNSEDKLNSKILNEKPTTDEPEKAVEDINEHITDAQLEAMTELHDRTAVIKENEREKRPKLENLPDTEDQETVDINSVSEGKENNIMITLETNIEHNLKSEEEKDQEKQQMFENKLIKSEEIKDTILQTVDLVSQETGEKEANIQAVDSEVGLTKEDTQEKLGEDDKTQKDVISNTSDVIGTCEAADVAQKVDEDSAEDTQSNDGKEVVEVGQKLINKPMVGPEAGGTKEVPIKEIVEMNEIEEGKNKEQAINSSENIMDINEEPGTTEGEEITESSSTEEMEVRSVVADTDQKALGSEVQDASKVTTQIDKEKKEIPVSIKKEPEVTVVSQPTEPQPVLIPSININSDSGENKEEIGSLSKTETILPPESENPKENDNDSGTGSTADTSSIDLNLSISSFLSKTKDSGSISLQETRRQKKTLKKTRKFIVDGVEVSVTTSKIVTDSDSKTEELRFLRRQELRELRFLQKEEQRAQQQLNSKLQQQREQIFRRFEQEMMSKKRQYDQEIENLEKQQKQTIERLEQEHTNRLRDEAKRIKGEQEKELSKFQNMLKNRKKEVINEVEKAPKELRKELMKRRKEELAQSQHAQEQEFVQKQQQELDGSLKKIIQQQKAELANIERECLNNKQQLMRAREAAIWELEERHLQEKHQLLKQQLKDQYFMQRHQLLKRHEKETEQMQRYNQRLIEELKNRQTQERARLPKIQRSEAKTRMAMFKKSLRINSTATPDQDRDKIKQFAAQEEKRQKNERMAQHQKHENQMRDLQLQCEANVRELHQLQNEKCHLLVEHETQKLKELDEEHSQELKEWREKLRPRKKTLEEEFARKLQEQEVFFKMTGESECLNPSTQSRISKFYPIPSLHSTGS

[5] = target: Epidermal growth factor receptor (Homo sapiens, UniProt P00533); test: Inhibition of wild type EGFR in human A549 cells assessed as inhibition of EGF-induced ERK-1/2 phosphorylation at 10 uM pretreated with compound for 4 hrs followed by incubation with EGF for 10 mins by western blot analysis; type: toxicity, cell-based; settings: a549, 4.167 h, time 250 min
[6] = test system: HCC827; test: Induction of apoptosis in human HCC827 cells assessed as induction of PARP cleavage pretreated with compound for 4 hrs followed by incubation with EGF for 10 mins by western blot analysis; type: functional, cell-based; settings: dose 0.1-10 µM, time 250.0 min
[7] = test system: A-431; test: Induction of apoptosis in human A-431 cells assessed as induction of PARP cleavage at 0.1 to 10 uM pretreated with compound for 4 hrs followed by incubation with EGF for 10 mins by western blot analysis; type: toxicity, cell-based; settings: a-431, 4.167 h, dose 0.1-10 µM, time 250 min
[8] = test system: A549; test: Induction of apoptosis in human A549 cells assessed as increase in caspase-3/7 activity at 0.1 to 10 uM incubated for 24 hrs by Caspase-Glo reagent based luminescence analysis; type: toxicity, cell-based; settings: a549, 24 h, dose 0.1-10 µM
[9] = test system: A-431; test: Induction of apoptosis in human A-431 cells assessed as increase in caspase-3/7 activity at 0.1 to 10 uM incubated for 24 hrs by Caspase-Glo reagent based luminescence analysis; type: toxicity, cell-based; settings: a-431, 24 h, dose 0.1-10 µM
[10] = test system: HCC827; test: Inhibition of clonogenicity in human HCC827 cells assessed as inhibition of colony formation incubated for 14 days by crystal violet staining based analysis; type: functional, cell-based; settings: dose 0.1-10 µM, time 14.0 day
[11] = test system: A549; test: Inhibition of clonogenicity in human A549 cells assessed as inhibition of colony formation at 0.1 to 10 uM incubated for 14 days by crystal violet staining based analysis; type: toxicity, cell-based; settings: a549, 336 h, dose 0.1-10 µM, time 14 day
[12] = test system: NCI-H1975; test: Inhibition of clonogenicity in human NCI-H1975 cells assessed as inhibition of colony formation at 0.1 uM incubated for 14 days by crystal violet staining based analysis; type: functional, cell-based; settings: time 14.0 day
[13] = test system: NCI-H1975; test: Inhibition of cell migration in human NCI-H1975 cells at 0.1 uM incubated for 48 hrs by scratch wound healing assay; type: functional, cell-based
[14] = Half life in Sprague-Dawley rat at 1 mg/kg, iv by LC-MS analysis; type: ADME, organism-based; settings: in vivo
[15] = Apparent volume of distribution in Sprague-Dawley rat at 1 mg/kg, iv by LC-MS analysis; type: ADME, organism-based; settings: in vivo, read-out: Vz
[16] = test system: NCI-H1975; test: Antitumor activity against human NCI-H1975 cells xenografted in BALB/c mouse assessed as tumor regression at 5 to 10 mg/kg/day, ip; type: functional, organism-based; settings: dose 5-10 mg/kg/day
[17] = Toxicity in BALB/c mouse xenografted with human NCI-H1975 cells assessed as change in heart morphological changes at 5 to 20 mg/kg/day, ip by hematoxylin-eosin staining based analysis; type: organism-based; settings: in vivo, dose 5-20 mg/kg/day
[18] = Toxicity in BALB/c mouse xenografted with human NCI-H1975 cells assessed as change in spleen morphological changes at 5 to 20 mg/kg/day, ip by hematoxylin-eosin staining based analysis; type: organism-based; settings: in vivo, dose 5-20 mg/kg/day
[19] = test system: Mus musculus; test: In vivo inhibition of EGFR L858R/T790M mutant in ip dosed NCI-H1975 cells xenografted BALB/c mouse assessed as inhibition of ERK-1/2 phosphorylation in tumor by immunoblot analysis; type: functional, organism-based; settings: dose 5-20 mg/kg/day
[20] = test system: NCI-H1975; test: Synergistic antiproliferative activity against N-(3-((6-Fluoro-2-((4-(4-methylpiperazin-1-yl)phenyl)amino)quinazolin-4-yl)amino)phenyl)acrylamide-resistant human NCI-H1975 cells assessed as combination index measured after 72 hrs in presence of ACK1 inhibitor, AIM100 by MTT assay; type: functional
[21] = test system: Epidermal growth factor receptor (Homo sapiens), P00533 [L858R,T790M]; test: Inhibition of EGFR L858R/T790M mutant in N-(3-((6-Fluoro-2-((4-(4-methylpiperazin-1-yl)phenyl)amino)quinazolin-4-yl)amino)phenyl)acrylamide-resistant human NCI-H1975 cells assessed as inhibition of EGF-induced EGFR phosphorylation at Tyr1068 residue pretreated with compound for 4 hrs followed by incubation with EGF for 10 mins by western blot analysis; type: cell-based; settings: time 250.0 min
[22] = Toxicity in BALB/c mouse xenografted with N-(3-((6-Fluoro-2-((4-(4-methylpiperazin-1-yl)phenyl)amino)quinazolin-4-yl)amino)phenyl)acrylamide-resistant human NCI-H1975 cells assessed as changes in heart morphological changes at 20 mg/kg/day, ip in presence of ACK1 inhibitor, dasatinib by hematoxylin-eosin staining based analysis; type: organism-based; settings: in vivo
[23] = test system: Mus musculus; test: In vivo inhibition of EGFR L858R/T790M mutant in N-(3-((6-Fluoro-2-((4-(4-methylpiperazin-1-yl)phenyl)amino)quinazolin-4-yl)amino)phenyl)acrylamide-resistant human NCI-H1975 cells xenografted BALB/c mouse assessed as inhibition of AKT phosphorylation at Ser473 residue in tumor at 20 mg/kg/day, ip in presence of ACK1 inhibitor, dasatinib by immunoblot analysis; type: functional, organism-based
[24] = test system: NCI-H1975; test: Antitumor activity against human NCI-H1975 cells xenografted in BALB/c mouse assessed as tumor regression at 10 mg/kg/day, po; type: functional, organism-based

With C=CC(=O)Nc1cccc(Nc2nc(Nc3ccc(N4CCN(C)CC4)cc3)nc3ccc(F)cc23)c1 the Activity [1] was 1%, the Activity [2] was 14% and the IC50 [3] was 3.5 nM. For the same compound, the IC50 [4] was 892 nM, the “inhibition (INH)” value [5] was “Not Active” and the Activity [6] was “Dose-Dependent Effect”. For the same compound, the Activity [7] was “Non-Toxic”, the Activity [8] was “Non-Toxic” and the Activity [9] was “Non-Toxic”. For the same compound, the inhibition [10] was “Dose-Dependent Effect”, the Activity [11] was “Non-Toxic” and the inhibition [12] was “Active”. For the same compound, the inhibition [13] was “Active”, the half-life [14] was 1.76 h and the Vd [15] was 2.52 L/kg. For the same compound, the Activity [16] was “Active”, the Activity [17] was “Non-Toxic” and the Activity [18] was “Non-Toxic”. The inhibition [19] was “Dose-Dependent Effect”, the CI [20] was less than 2 and the inhibition [21] was “Active”. For the same compound, the Activity [22] was “Non-Toxic” and the inhibition [23] was “Active”.
In the case of C=CC(=O)Nc1cc(Nc2nccc(-c3cn(C)c4ccccc34)n2)c(OC)cc1N(C)CCN(C)C [OSIMERTINIB], the Activity [24] is reported as “Active”.
